US20250026778A1 (TIUMBIO CO., LTD., priority 2021, published 2025)

The molecules below were run against T1, his-galectin-3 (Homo sapiens, UniProt P17931) (assay: TR-FRET assay (in vitro galectin-3 binding inhibitory activity test)). Conditions: Table 1; compound at 20 μM; 60 nM his-galectin-3, 15 nM biotin-ASF; read-out: % Inhibitory activity (at 20 μM).
T1 construct: purchased Abcam
T1 sequence (P17931 whole entry): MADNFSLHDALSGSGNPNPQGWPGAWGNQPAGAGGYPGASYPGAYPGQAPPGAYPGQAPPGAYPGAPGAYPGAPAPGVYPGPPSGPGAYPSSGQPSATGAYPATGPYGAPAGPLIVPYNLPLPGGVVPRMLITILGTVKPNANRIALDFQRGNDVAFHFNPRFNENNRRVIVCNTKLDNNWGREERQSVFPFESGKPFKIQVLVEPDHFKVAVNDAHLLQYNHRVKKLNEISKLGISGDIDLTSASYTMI
Procedure: TR-FRET Assay (In Vitro Galectin-3 Binding Inhibitory Activity Test)
TR-FRET assay was performed in ½ Area Plate-96 (PerkinElmer). Final concentrations of components in the assay were 60 nM his-galectin-3 (Abcam), 15 nM biotin-ASF (Axxora), 2 nM Mab anti-6×His Tb (Cisbio) and 20 nM SA-d2 (Cisbio). The reaction was performed in a buffer containing 25 mM HEPES, 100 mM NaCl, 0.005% Tween 20 and 0.05% BSA. 20 μL his-galectin-3 and 1 μL compound were mixed first, and then 20 μL biotin-ASF, 5 μL anti-His Tb and 5 μL SA-d2 were added in order. After incubation for at least 3.5 hours at RT, TR-FRET signals were measured at 615/665 nm […] wavelengths using a VICTOR Nivo (PerkinElmer). The positive control used DMSO instead of the compound, and the negative control excluded ASF-biotin. N-acetyl-D-lactosamine (LacNAc), an endogenous ligand unit of galectin-3, was evaluated together as a control substance to compare galectin-3 binding inhibitory activity.
Molecule OC[C@H]1O[C@@]2(CCCCO2)[C@H](O)[C@@H](n2cc(-c3cc(F)c(F)c(F)c3)nn2)[C@H]1O [Compound A24, (2R,3R,4S,5R,6S)-2-(hydroxymethyl)-4-(4-(3,4,5-trifluorophenyl)-1H-1,2,3-triazol-1-yl)-1,7-dioxaspiro[5.5]undecane-3,5-diol] has an inhibition at 20 µM of 25 to 50%. Work on OC[C@H]1O[C@@]2(CCCCO2)[C@H](OCc2ccccc2)[C@@H](n2cc(-c3cc(F)c(F)c(F)c3)nn2)[C@H]1O [Compound A25, (2R,3R,4S,5R,6S)-5-(benzyloxy)-2-(hydroxymethyl)-4-(4-(3,4,5-trifluorophenyl)-1H-1,2,3-triazol-1-yl)-1,7-dioxaspiro[5.5]undecan-3-ol] yielded an inhibition at 20 µM of 25 to 50%. For O=S1(=O)CCC(CO[C@@H]2[C@@H](n3cc(-c4cc(F)c(F)c(F)c4)nn3)[C@@H](O)[C@@H](CO)O[C@@]23CCCO3)CC1 [Compound A26, 4-((((5S,7R,8R,9S,10R)-8-hydroxy-7-(hydroxymethyl)-9-(4-(3,4,5-trifluorophenyl)-1H-1,2,3-triazol-1-yl)-1,6-dioxaspiro[4.5]decan-10-yl)oxy)methyl)tetrahydro-2H-thiopyran 1,1-dioxide], the inhibition at 20 µM was 25 to 50%. OC[C@H]1O[C@@]2(CCCO2)[C@H](OCC(F)F)[C@@H](n2cc(-c3cc(F)c(F)c(F)c3)nn2)[C@H]1O [Compound A27, (5S,7R,8R,9S,10R)-10-(2,2-difluoroethoxy)-7-(hydroxymethyl)-9-(4-(3,4,5-trifluorophenyl)-1H-1,2,3-triazol-1-yl)-1,6-dioxaspiro[4.5]decan-8-ol] showed an inhibition at 20 µM of 25 to 50%. Work on Cn1nnc(-c2ccc(CO[C@@H]3[C@@H](n4cc(-c5cc(F)c(F)c(F)c5)nn4)[C@@H](O)[C@@H](CO)O[C@@]34CCCO4)cc2)n1 [Compound A28, (5S,7R,8R,9S,10R)-7-(hydroxymethyl)-10-((4-(2-methyl-2H-tetrazol-5-yl)benzyl)oxy)-9-(4-(3,4,5-trifluorophenyl)-1H-1,2,3-triazol-1-yl)-1,6-dioxaspiro[4.5]decan-8-ol] yielded an inhibition at 20 µM of 25 to 50%. O=C(CO[C@@H]1[C@@H](n2cc(-c3cc(F)c(F)c(F)c3)nn2)[C@@H](O)[C@@H](CO)O[C@@]12CCCO2)Nc1ccc(Cl)nn1 [Compound A29, N-(6-chloropyridazin-3-yl)-2-(((5S,7R,8R,9S,10R)-8-hydroxy-7-(hydroxymethyl)-9-(4-(3,4,5-trifluorophenyl)-1H-1,2,3-triazol-1-yl)-1,6-dioxaspiro[4.5]decan-10-yl)oxy)acetamide] was tested, and the inhibition at 20 µM was less than 25%. For OC[C@H]1O[C@]2(OCC[C@H]2c2ccccc2)[C@H](O)[C@@H](n2cc(-c3cc(F)c(F)c(F)c3)nn2)[C@H]1O [Compound A30, (4S,5S,7R,8R,9S,10R)-7-(hydroxymethyl)-4-phenyl-9-(4-(3,4,5-trifluorophenyl)-1H-1,2,3-triazol-1-yl)-1,6-dioxaspiro[4.5]decane-8,10-diol], the inhibition at 20 µM was less than 25%. Work on O=C(O[C@@H]1[C@@H](n2cc(-c3cc(F)c(F)c(F)c3)nn2)[C@@H](O)[C@@H](CO)O[C@@]12CCCO2)c1ccccc1 [Compound A31, (5S,7R,8R,9S,10R)-8-hydroxy-7-(hydroxymethyl)-9-(4-(3,4,5-trifluorophenyl)-1H-1,2,3-triazol-1-yl)-1,6-dioxaspiro[4.5]decan-10-yl benzoate] yielded an inhibition at 20 µM of 25 to 50%. For COC(=O)CO[C@@H]1[C@@H](n2cc(-c3cc(F)c(F)c(F)c3)nn2)[C@@H](O)[C@@H](CO)O[C@@]12CCCCO2 [Compound A32, methyl-2-(((2R,3R,4S,5R,6S)-3-hydroxy-2-(hydroxymethyl)-4-(4-(3,4,5-trifluorophenyl)-1H-1,2,3-triazol-1-yl)-1,7-dioxaspiro[5.5]undecan-5-yl)oxy)acetate], the inhibition at 20 µM was 25 to 50%. Work on O=C(CO[C@@H]1[C@@H](n2cc(-c3cc(F)c(F)c(F)c3)nn2)[C@@H](O)[C@@H](CO)O[C@@]12CCCO2)N1CC(F)(F)C1 [Compound A33, 1-(3,3-difluoroazetidin-1-yl)-2-(((5S,7R,8R,9S,10R)-8-hydroxy-7-(hydroxymethyl)-9-(4-(3,4,5-trifluorophenyl)-1H-1,2,3-triazol-1-yl)-1,6-dioxaspiro[4.5]decan-10-yl)oxy)ethanone] yielded an inhibition at 20 µM of 25 to 50%. O=C(CO[C@@H]1[C@@H](n2cc(-c3cc(F)c(F)c(F)c3)nn2)[C@@H](O)[C@@H](CO)O[C@@]12CCCO2)N1CC(O)C1 [Compound A34, 2-(((5S,7R,8R,9S,10R)-8-hydroxy-7-(hydroxymethyl)-9-(4-(3,4,5-trifluorophenyl)-1H-1,2,3-triazol-1-yl)-1,6-dioxaspiro[4.5]decan-10-yl)oxy)-1-(3-hydroxyazetidin-1-yl)ethanone] gave an inhibition at 20 µM of 25 to 50%. In the case of OC[C@H]1O[C@@]2(CCCO2)[C@H](OCc2ccc3c(c2)OCO3)[C@@H](n2cc(-c3cc(F)c(F)c(F)c3)nn2)[C@H]1O [Compound A35, (5S,7R,8R,9S,10R)-10-(benzo[d][1,3]dioxol-5-ylmethoxy)-7-(hydroxymethyl)-9-(4-(3,4,5-trifluorophenyl)-1H-1,2,3-triazol-1-yl)-1,6-dioxaspiro[4.5]decan-8-ol], the inhibition at 20 µM is reported as 25 to 50%. With OC[C@H]1O[C@@]2(CCCO2)[C@H](OCc2ccccc2O)[C@@H](n2cc(-c3cc(F)c(F)c(F)c3)nn2)[C@H]1O [Compound A37, (5S,7R,8R,9S,10R)-10-((2-hydroxybenzyl)oxy)-7-(hydroxymethyl)-9-(4-(3,4,5-trifluorophenyl)-1H-1,2,3-triazol-1-yl)-1,6-dioxaspiro[4.5]decan-8-ol] the inhibition at 20 µM was 25 to 50%. OC[C@H]1O[C@@]2(CCCO2)[C@H](OCc2cccc(O)c2)[C@@H](n2cc(-c3cc(F)c(F)c(F)c3)nn2)[C@H]1O [Compound A38, (5S,7R,8R,9S,10R)-10-((3-hydroxybenzyl)oxy)-7-(hydroxymethyl)-9-(4-(3,4,5-trifluorophenyl)-1H-1,2,3-triazol-1-yl)-1,6-dioxaspiro[4.5]decan-8-ol] was tested, and the inhibition at 20 µM was 25 to 50%. With O=C(O[C@@H]1[C@@H](n2cc(-c3cc(F)c(F)c(F)c3)nn2)[C@@H](O)[C@@H](CO)O[C@@]12CCCO2)c1cccc(F)c1 [Compound A39, (5S,7R,8R,9S,10R)-8-hydroxy-7-(hydroxymethyl)-9-(4-(3,4,5-trifluorophenyl)-1H-1,2,3-triazol-1-yl)-1,6-dioxaspiro[4.5]decan-10-yl 3-fluorobenzoate] the inhibition at 20 µM was 50 to 75%. COc1cccc(C(=O)O[C@@H]2[C@@H](n3cc(-c4cc(F)c(F)c(F)c4)nn3)[C@@H](O)[C@@H](CO)O[C@@]23CCCO3)c1 [Compound A40, (5S,7R,8R,9S,10R)-8-hydroxy-7-(hydroxymethyl)-9-(4-(3,4,5-trifluorophenyl)-1H-1,2,3-triazol-1-yl)-1,6-dioxaspiro[4.5]decan-10-yl 3-methoxybenzoate] showed an inhibition at 20 µM of 25 to 50%. In the case of OC[C@H]1O[C@@]2(CCCCO2)[C@H](OCc2ccc3c(c2)OCO3)[C@@H](n2cc(-c3cc(F)c(F)c(F)c3)nn2)[C@H]1O [Compound A44, (2R,3R,4S,5R,6S)-5-(benzo[d][1,3]dioxol-5-ylmethoxy)-2-(hydroxymethyl)-4-(4-(3,4,5-trifluorophenyl)-1H-1,2,3-triazol-1-yl)-1,7-dioxaspiro[5.5]undecan-3-ol], the inhibition at 20 µM is reported as 25 to 50%. OC[C@H]1O[C@@]2(CCCCO2)[C@H](OCc2nn[nH]n2)[C@@H](n2cc(-c3cc(F)c(F)c(F)c3)nn2)[C@H]1O [Compound A45, (2R,3R,4S,5R,6S)-5-((2H-tetrazol-5-yl)methoxy)-2-(hydroxymethyl)-4-(4-(3,4,5-trifluorophenyl)-1H-1,2,3-triazol-1-yl)-1,7-dioxaspiro[5.5]undecan-3-ol] gave an inhibition at 20 µM of 50 to 75%. OC[C@H]1O[C@@]2(CCCCO2)[C@H](OCC(F)F)[C@@H](n2cc(-c3cc(F)c(F)c(F)c3)nn2)[C@H]1O [Compound A46, (2R,3R,4S,5R,6S)-5-(2,2-difluoroethoxy)-2-(hydroxymethyl)-4-(4-(3,4,5-trifluorophenyl)-1H-1,2,3-triazol-1-yl)-1,7-dioxaspiro[5.5]undecan-3-ol] gave an inhibition at 20 µM of 25 to 50%. OC[C@H]1O[C@@]2(CCCCO2)[C@H](OCc2ccccc2O)[C@@H](n2cc(-c3cc(F)c(F)c(F)c3)nn2)[C@H]1O [Compound A47, (2R,3R,4S,5R,6S)-5-((2-hydroxybenzyl)oxy)-2-(hydroxymethyl)-4-(4-(3,4,5-trifluorophenyl)-1H-1,2,3-triazol-1-yl)-1,7-dioxaspiro[5.5]undecan-3-ol] was tested, and the inhibition at 20 µM was 25 to 50%. In the case of OC[C@H]1O[C@@]2(CCCCO2)[C@H](OCc2cccc(F)c2)[C@@H](n2cc(-c3cc(F)c(F)c(F)c3)nn2)[C@H]1O [Compound A48, (2R,3R,4S,5R,6S)-5-((3-fluorobenzyl)oxy)-2-(hydroxymethyl)-4-(4-(3,4,5-trifluorophenyl)-1H-1,2,3-triazol-1-yl)-1,7-dioxaspiro[5.5]undecan-3-ol], the inhibition at 20 µM is reported as 25 to 50%.

Same assay, conditions: Table 3, found values; compound at 20 μM; 60 nM his-galectin-3, 15 nM biotin-ASF; read-out: % Inhibitory activity (at 20 μM)
COC(=O)CO[C@@H]1[C@@H](n2cc(-c3cc(F)c(F)c(F)c3)nn2)[C@@H](O)[C@@H](CO)O[C@@]12CCCCO2 [Compound A32, methyl-2-(((2R,3R,4S,5R,6S)-3-hydroxy-2-(hydroxymethyl)-4-(4-(3,4,5-trifluorophenyl)-1H-1,2,3-triazol-1-yl)-1,7-dioxaspiro[5.5]undecan-5-yl)oxy)acetate] was tested, and the inhibition at 20 µM was 36.7%. In the case of OC[C@H]1O[C@@]2(CCCCO2)[C@H](OCc2cccc(F)c2)[C@@H](n2cc(-c3cc(F)c(F)c(F)c3)nn2)[C@H]1O [Compound A48, (2R,3R,4S,5R,6S)-5-((3-fluorobenzyl)oxy)-2-(hydroxymethyl)-4-(4-(3,4,5-trifluorophenyl)-1H-1,2,3-triazol-1-yl)-1,7-dioxaspiro[5.5]undecan-3-ol], the inhibition at 20 µM is reported as 43.7%.

Same assay, conditions: read-out: % Inhibitory activity (at 20 μM), Table 1; compound at 20 μM; 60 nM his-galectin-3, 15 nM biotin-ASF
Work on O=C(O[C@H]1[C@@H](n2cc(-c3cc(F)c(F)c(F)c3)nn2)[C@@H](O)[C@@H](CO)O[C@@]12CCCO2)c1ccccc1 [Compound A42, (5S,7R,8R,9S,10S)-8-hydroxy-7-(hydroxymethyl)-9-(4-(3,4,5-trifluorophenyl)-1H-1,2,3-triazol-1-yl)-1,6-dioxaspiro[4.5]decan-10-yl benzoate] yielded an inhibition at 20 µM of less than 25%.
